The values below come from US20130203649A1, “INHIBITORS OF TLR SIGNALING BY TARGETING TIR DOMAIN INTERFACES” (UNIVERSITY OF MARYLAND, BALTIMORE, priority 2012, published 2013).

No end group written: not given here.

Test [1] deals with TLR4. Put plainly: LPS-induced STAT1-Y701 phosphorylation in macrophages (immunoblotting). The format is cell-based, mouse. Conditions: 2 h after LPS.
In test [2] the test system is C57BL/6J mice. Put plainly: Survival after lethal LPS challenge in C57BL/6J mice. Format: in vivo, mouse. The note with it: LPS 17.5 μg/g i.p.; peptide 10 nmol/g i.p. 1 h before. How it is done: FIG. 10. […] (A-E) C57BL/6J mice were injected i.p. with purified Escherichia coli K235 LPS (1 μg/g) or PBS. Peptides (10 nmol/g of animal weight) were injected i.p. (A, B, D, E) or i.v. (C) 1 h before (A, B, and C) or 30 min after (D, E) i.p. injection of LPS. Data in panels A and D show plasma IL-6 and TNF-α levels measured 2 h after LPS challenge. Peptide TM8/9 was used as a non-inhibitory control peptide. Data represent the means±s.e.m. for 6-12 blood samples obtained in at least three independent experiments. *p<0.01. (F, G) C57BL/6J mice were challenged i.p. with a lethal LPS dose (17.5 μg/g). Peptides (10 nmol/g) were injected i.p. 1 h before LPS challenge. […] The statistical significance of changes in mortality and survival time was determined by the Mantel Cox log-rank test using GraphPad Prism software (Version 5.04). *p<0.01.
Eight-week-old C57BL/6J mice were injected with 1 or 17.5 μg/g animal weight of E. coli K235 LPS i.p. Peptides reconstituted in PBS were administered i.p. or i.v. Control groups received equivalent volume of solvent (PBS). The blood samples were collected 1, 2, 4, and 8 h, or 2, 8, and 24 h after LPS challenge. The plasma samples were obtained and kept frozen until TNF-α and IL-6 were measured by ELISA. Survival of animals was monitored every 6-16 h after LPS challenge. All animal experiments were carried out with institutional approval.
We next studied whether inhibitory peptides protect mice from a lethal LPS challenge. TR6, a previously described inhibitory peptide derived from the third helical region of TRAP (30), was also included in this study as an additional control. C57BL/6J mice were injected i.p. with 17.5 μg/g LPS. This dose induced 100% mortality in the control group (FIG. 10F). […] The peptide-treated survivors appeared active and healthy at the time the experiments were terminated, 7 d after injection of LPS.

RQIKIWFQNRRMKWKKCLQDAIDHSGFT [TF5]: the “LPS-induced STAT1-Y701 phosphorylation” value in test [1] is recorded as “inhibit”. On to RQIKIWFQNRRMKWKKPGFLRDPWCKYQML [TR6], for which the “Survival after lethal LPS challenge” value in test [2] was “improved animal survival comparably to TM6”.
